Test results taken from US8343477B2, “Inhibitors of hepatitis C virus” (Bristol-Myers Squibb Company, priority 2006, dated 2013).

Columns and labels:
[1] = target: T1, HCV NS3/4A protease complex, H77 strain (Hepatitis C virus genotype 1a, UniProt P27958, C1454S/C1711G); assay: FRET peptide assay to monitor HCV NS3/4A proteolytic activity, H77 strain; assay type: biochemical, HCV genotype 1a; settings: H77 strain (1a genotype)
T1 construct: DNA encoding the recombinant HCV NS3/4A protease complex (amino acids 1027 to 1711) for these strains; inferred from pET21b vector and Ni-NTA purification; made in house; host or cells: Escherichia coli BL21 (DE3), pET21b
Excerpt: (§1) HCV NS3 protease complexes, derived from the BMS strain, H77 strain or J4L6S strain, were generated, as described below. These purified recombinant proteins were generated for use in a homogeneous assay (see below) to provide an indication of how effective compounds of the present disclosure would be in inhibiting HCV NS3 proteolytic activity.
(§2) Serum from an HCV-infected patient was obtained from Dr. T. Wright, San Francisco Hospital. An engineered full-length cDNA (compliment deoxyribonucleic acid) template of the HCV genome (BMS strain) was constructed from DNA fragments obtained by reverse transcription-PCR(RT-PCR) of serum RNA (ribonucleic acid) and using primers selected on the basis of homology between other genotype 1a strains. From the determination of the entire genome sequence, a genotype 1a was assigned to the HCV isolate according to the classification of Simmonds et al. (See P Simmonds, K A Rose, S Graham, S W Chan, F McOmish, B C Dow, E A Follett, P L Yap and H Marsden, J. Clin. Microbiol., 31(6), 1493-1503 (1993)). […]

[2] = target: T2, HCV NS3/4A protease complex, J4L6S strain (Hepatitis C virus genotype 1b, UniProt O92972, C1454S/C1711G); assay: FRET peptide assay to monitor HCV NS3/4A proteolytic activity, J4L6S strain; assay type: biochemical, HCV genotype 1b; settings: J4L6S strain (1b genotype)
T2 construct: DNA encoding the recombinant HCV NS3/4A protease complex (amino acids 1027 to 1711) for these strains; inferred from pET21b vector and Ni-NTA purification; made in house; host or cells: Escherichia coli BL21 (DE3), pET21b
Excerpt: as §1, §2

[3] = target: HCV NS3/4A protease complex, BMS strain (Hepatitis C virus genotype 1a, UniProt P27958); assay: FRET peptide assay to monitor HCV NS3/4A proteolytic activity, BMS strain; assay type: biochemical, HCV genotype 1a; settings: read-out: IC50 against the NS3/4A BMS strain in the enzyme assay
Excerpt: as §1
Serum from an HCV-infected patient was obtained from Dr. T. Wright, San Francisco Hospital. […]
In order to monitor HCV NS3/4A protease activity, an NS3/4A peptide substrate was used. […] The peptide also contains a fluorescence donor, EDANS, near one end of the peptide and an acceptor, DABCYL, near the other end. The fluorescence of the peptide is quenched by […] resonance energy transfer (RET) between the donor and the acceptor, but as the NS3 protease cleaves the peptide the products are released from RET quenching and the fluorescence of the donor becomes apparent.
The peptide substrate was incubated with one of the three recombinant NS3/4A protease complexes, in the absence or presence of a compound of the present disclosure. The inhibitory effects of a compound was determined by monitoring the formation of fluorescent reaction product in real time using a Cytofluor Series 4000. […]

[4] = system: human pancreatic chymotrypsin; assay: Specificity assay, chymotrypsin (pNA substrate); assay type: biochemical; settings: read-out: Chymotrypsin activity in the specificity assays (IC50)
Experimental: The specificities of compounds of the present disclosure were determined against a variety of serine proteases: human neutrophil elastase (HNE), porcine pancreatic elastase (PPE) and human pancreatic chymotrypsin and one cysteine protease: human liver cathepsin B. In all cases, a 96-well plate format protocol using colorimetric p-nitroaniline (pNA) substrate or fluorometric Amino-Methyl-Coumarin (AMC) substrate, specific for each enzyme was used as described previously (PCT Patent Application No. WO 00/09543) with some modifications. All enzymes were purchased from Sigma or EMDbiosciences while the substrates were from Bachem.
Each pNA assay included a 2 h enzyme-inhibitor pre-incubation at room temperature followed by addition of substrate and hydrolysis to ˜15% conversion as measured on a Spectramax Pro microplate reader. The cathepsin B assay was initiated by adding substrate to a 10 min enzyme-inhibitor pre-incubation at room temperature, and the assay plate measured immediately using the Cytofluor Series 4000. Compound concentrations varied from 100 to 0.4 μM depending on their potency.
50 mM Tris(hydroxymethyl)aminomethane hydrochloride (Tris-HCl) pH 8, 0.5 M Sodium Sulfate (Na2SO4), 50 mM NaCl, 0.1 mM EDTA, 3% DMSO, 0.01% Tween-20 with: […]
The percentage of inhibition was calculated using the formula: [1−((UVinh−UVblank)/(UVctl−UVblank))]×100 […]

T1 sequence (P27958 1027-1711 C1454S/C1711G, one chain of several): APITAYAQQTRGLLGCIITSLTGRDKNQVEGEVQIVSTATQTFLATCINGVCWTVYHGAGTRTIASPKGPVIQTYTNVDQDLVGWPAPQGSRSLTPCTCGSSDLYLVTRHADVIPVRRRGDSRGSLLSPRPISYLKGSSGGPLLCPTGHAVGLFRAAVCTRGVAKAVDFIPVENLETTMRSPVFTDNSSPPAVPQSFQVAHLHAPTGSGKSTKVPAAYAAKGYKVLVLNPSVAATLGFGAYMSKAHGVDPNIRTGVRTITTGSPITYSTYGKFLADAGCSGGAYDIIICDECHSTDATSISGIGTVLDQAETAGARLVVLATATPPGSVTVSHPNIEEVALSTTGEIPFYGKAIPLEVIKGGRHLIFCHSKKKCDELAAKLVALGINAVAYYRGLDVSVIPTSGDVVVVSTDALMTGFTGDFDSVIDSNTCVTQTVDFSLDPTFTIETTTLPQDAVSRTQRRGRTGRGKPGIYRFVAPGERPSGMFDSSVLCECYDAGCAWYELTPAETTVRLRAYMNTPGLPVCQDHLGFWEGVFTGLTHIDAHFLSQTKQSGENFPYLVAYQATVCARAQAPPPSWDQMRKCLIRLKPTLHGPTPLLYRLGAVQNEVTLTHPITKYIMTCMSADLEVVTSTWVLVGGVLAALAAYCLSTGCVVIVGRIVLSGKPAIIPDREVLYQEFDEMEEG
T2 sequence (O92972 1027-1711 C1454S/C1711G, one chain of several): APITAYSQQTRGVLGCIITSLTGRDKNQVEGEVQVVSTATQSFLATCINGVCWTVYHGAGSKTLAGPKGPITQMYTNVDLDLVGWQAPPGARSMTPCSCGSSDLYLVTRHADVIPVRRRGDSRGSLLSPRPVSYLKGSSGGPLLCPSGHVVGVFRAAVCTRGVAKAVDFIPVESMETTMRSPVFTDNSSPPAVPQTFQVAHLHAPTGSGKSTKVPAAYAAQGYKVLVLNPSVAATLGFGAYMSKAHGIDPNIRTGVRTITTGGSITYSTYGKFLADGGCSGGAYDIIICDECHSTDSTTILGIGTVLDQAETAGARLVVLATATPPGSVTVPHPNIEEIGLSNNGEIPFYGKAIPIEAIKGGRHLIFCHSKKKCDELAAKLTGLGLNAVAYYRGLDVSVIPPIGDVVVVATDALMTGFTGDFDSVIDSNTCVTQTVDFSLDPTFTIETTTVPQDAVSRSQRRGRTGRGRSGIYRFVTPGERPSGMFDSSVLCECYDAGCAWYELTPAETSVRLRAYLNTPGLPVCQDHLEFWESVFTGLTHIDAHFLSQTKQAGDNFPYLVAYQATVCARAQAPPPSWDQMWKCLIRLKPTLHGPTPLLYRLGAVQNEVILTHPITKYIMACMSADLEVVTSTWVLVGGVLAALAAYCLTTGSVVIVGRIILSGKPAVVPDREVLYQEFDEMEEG
HCV NS3/4A protease complex, BMS strain, sequence (P27958 1027-1711, one chain of several): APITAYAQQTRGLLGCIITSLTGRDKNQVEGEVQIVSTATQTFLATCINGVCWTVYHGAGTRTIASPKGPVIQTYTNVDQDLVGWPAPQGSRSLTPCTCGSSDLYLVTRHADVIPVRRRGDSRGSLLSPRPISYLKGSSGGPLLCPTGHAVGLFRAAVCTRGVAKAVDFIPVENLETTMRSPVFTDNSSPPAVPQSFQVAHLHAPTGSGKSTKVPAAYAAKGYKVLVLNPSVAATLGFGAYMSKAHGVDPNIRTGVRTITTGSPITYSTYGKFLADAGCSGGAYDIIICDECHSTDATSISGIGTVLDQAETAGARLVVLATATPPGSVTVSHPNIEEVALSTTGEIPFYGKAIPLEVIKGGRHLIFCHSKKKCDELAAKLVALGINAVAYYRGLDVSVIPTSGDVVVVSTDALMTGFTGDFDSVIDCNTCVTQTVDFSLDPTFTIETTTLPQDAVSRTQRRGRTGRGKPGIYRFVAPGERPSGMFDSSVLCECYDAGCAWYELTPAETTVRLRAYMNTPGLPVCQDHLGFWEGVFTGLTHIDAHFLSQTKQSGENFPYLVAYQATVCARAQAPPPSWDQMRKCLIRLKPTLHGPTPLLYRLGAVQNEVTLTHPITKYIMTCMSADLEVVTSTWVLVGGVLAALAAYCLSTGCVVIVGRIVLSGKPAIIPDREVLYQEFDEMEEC

## CC(C)(C)OC(=O)N[C@H]1CN(C2CC2)CCC/C=C\C2C[C@@]2(C(=O)NS(=O)(=O)C2CC2)NC(=O)[C@@H]2C[C@@H](Oc3ccccn3)CN2C1=O (some centres unmarked) [Compound 1]
[1]
  IC50: 18 nM
[2]
  IC50: 12 nM
[3]
  IC50: 98 nM
[4]
  IC50: > 100000 nM

## CC(C)(C)OC(=O)N[C@H]1CCCOC/C=C\[C@@H]2C[C@@]2(C(=O)NS(=O)(=O)C2CC2)NC(=O)[C@@H]2C[C@@H](OCc3ccccc3)CN2C1=O [Compound 5, (1S,4R,6S,14S,18R, 7-cis)-18-benzyloxy-14-tert-butoxycarbonylamino-4-cyclopropanesulfonylaminocarbonyl-2,15-dioxo-3,16-diaza-10-oxatricyclo[14.3.0.04,6]nonadec-7-ene]
other
  melting point: 147 to 149 °C
